# According to patent publication US20110014148A1, “Cationic Surfactants Having Improved Properties” (COGNIS IP MANAGEMENT GMBH, priority 2008, published 2011):
# Tests used:
# [1] = Biodegradability in accordance with OECD 301 B
# Procedure: (§1) For the cationic surfactant type 1 from Table 2, the biodegradability and toxicity was determined in accordance with OECD 301 B against algae.
# algae = format: cell-based
# Procedure: as §1
compound,measurement,setting,value
CCCCCCCCCCCCCCCCCCCCCC[N+](C)(C)C.[Cl-] [behentrimonium chloride],Biodegradability,[1],not degraded
same,Toxicity towards algae,algae,< 1 mg/L
